Here are results for one compound from publication PMC5412352 (International Journal of Molecular Sciences, 2017).

“Also recorded” adds a separate entry of the source.

The test system of one experiment is adrenergic α1ARs. Description: Commercial screening by Eurofins Panlabs. In kind it is binding.
The next experiment deals with T1, muscarinic M1Rs (Homo sapiens, UniProt P11229).
T1 construct: Eurofins Panlabs (Taiwan), contract screening
T1 sequence (P11229 1-460): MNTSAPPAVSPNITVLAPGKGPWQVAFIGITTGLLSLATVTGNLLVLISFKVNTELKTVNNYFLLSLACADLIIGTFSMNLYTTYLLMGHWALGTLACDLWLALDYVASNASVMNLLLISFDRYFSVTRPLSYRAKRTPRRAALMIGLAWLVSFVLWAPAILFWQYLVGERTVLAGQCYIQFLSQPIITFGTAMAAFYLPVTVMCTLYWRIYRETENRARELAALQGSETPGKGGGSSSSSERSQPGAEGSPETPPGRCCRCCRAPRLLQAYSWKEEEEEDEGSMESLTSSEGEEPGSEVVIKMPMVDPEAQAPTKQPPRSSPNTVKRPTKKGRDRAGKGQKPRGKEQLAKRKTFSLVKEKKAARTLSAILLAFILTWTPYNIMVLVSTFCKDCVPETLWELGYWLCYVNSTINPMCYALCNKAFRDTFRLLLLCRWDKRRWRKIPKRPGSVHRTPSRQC
Description: Commercial screening by Eurofins Panlabs. In kind it is binding.

The next experiment has as its target T2, muscarinic M2Rs (Homo sapiens, UniProt P08172).
T2 construct: Eurofins Panlabs (Taiwan), contract screening
T2 sequence (P08172 1-466): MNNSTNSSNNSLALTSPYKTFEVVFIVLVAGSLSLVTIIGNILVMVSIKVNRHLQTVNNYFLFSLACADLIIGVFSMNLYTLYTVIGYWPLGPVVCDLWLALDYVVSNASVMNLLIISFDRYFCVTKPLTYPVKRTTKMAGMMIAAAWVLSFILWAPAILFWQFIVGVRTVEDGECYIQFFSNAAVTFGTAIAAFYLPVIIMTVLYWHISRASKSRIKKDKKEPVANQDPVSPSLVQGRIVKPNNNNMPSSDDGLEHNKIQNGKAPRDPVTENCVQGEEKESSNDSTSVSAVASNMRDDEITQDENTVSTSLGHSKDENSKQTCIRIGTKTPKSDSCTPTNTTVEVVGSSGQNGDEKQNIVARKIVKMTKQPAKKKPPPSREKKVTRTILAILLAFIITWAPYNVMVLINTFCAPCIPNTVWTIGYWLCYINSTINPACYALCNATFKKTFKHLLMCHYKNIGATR
Description: Commercial screening by Eurofins Panlabs. In kind it is binding.

The target in experiment [1] is human GhrR (hGhrR-eYFP, HEK293 cell membranes) (Homo sapiens, UniProt Q92847). In words: Competitive radioligand binding assay with [125I-His9]ghrelin at hGhrR membranes.
Description: Each concentration was tested in duplicate. The membrane-bound radioligand was trapped on a Filtermat B (PerkinElmer) pre-soaked with 0.1% polyethylenimine in H2O by using a filtermat harvester (PerkinElmer). After drying for 20 min at 55 °C, a Meltilex scintillation sheet (PerkinElmer) was melted onto the filtermat and the samples were counted in a Microbeta scintillation counter (PerkinElmer).
In the next experiment the target is GhrR. More on the design: method as in PMID 22342626. As to conditions: previously published value; cited from earlier work.
The target in experiment [2] is hGhrR (COS7 cells stably expressing hGhrR-eYFP) (Homo sapiens, UniProt Q92847). In words: cell-based.
Description: For that purpose, the inositol phosphate accumulation assay was used [43, 44].
Briefly, 60,000 to 80,000 cells/well of COS7 cells, stably expressing the fusion protein hGhrR-eYFP, were seeded in 48-well plates in Dulbecco’s modified Eagle’s medium (DMEM) with 10% fetal calf serum (FCS) and 0.4 mg/mL hygromycin B. The next day, the cells were labeled with [2-^3H]-myo-inositol (2 µCi/mL, PerkinElmer). […] Cell debris was removed and the supernatant purified on an anion-exchange resin (BioRad, Hercules, CA, USA). The obtained data were analyzed with GraphPad Prism 5.0 (GraphPad Software, San Diego, CA, USA). […] EC50/IC50 values were calculated from at least three independent experiments. Emax is defined as the difference between maximal and minimal effect in presence of the compound.
A further experiment concerns the target T3, rat σ2 receptor (Rattus norvegicus, UniProt Q5U3Y7).
T3 construct: rat σ2 receptor = rat liver homogenate; from tissue; host or cells: rat liver homogenate
T3 sequence (Q5U3Y7 1-176): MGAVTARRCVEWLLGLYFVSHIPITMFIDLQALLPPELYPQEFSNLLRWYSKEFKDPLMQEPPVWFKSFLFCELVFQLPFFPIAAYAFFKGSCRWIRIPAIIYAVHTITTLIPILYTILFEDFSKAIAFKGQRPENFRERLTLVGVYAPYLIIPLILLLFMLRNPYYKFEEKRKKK
Description: Selectivity radioligand displacement, [3H]DTG, rat liver homogenate. Conditions: [3H]DTG + 1 µM dextrallorphan. In kind it is binding. The method, then:
[…]
The incubations were terminated by rapid filtration via glass-fiber filters presoaked in PEI (0.3%, 60 min at rt), and the filter-bound radioactivity was counted by liquid scintillation counting (Tricarb, PerkinElmer).
Background: Loss of bound radioactivity is the signal in a displacement assay; it reports binding, not function.

Chain of hGhrR (COS7 cells stably expressing hGhrR-eYFP) (Q92847 whole entry): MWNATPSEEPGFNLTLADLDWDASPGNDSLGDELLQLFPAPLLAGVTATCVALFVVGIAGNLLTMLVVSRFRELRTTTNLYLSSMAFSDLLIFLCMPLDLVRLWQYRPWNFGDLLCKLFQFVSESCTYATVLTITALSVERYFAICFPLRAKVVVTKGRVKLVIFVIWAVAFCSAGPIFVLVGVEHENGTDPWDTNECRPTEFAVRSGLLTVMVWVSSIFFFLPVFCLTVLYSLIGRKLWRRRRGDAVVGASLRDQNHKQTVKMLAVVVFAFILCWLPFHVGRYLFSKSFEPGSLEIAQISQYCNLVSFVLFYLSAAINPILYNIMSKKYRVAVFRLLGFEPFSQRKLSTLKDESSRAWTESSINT
Chain of human GhrR (hGhrR-eYFP, HEK293 cell membranes) (Q92847 whole entry): as above

`Cc1nc2ccc(Oc3ccc(Br)cc3F)nc2c(=O)n1C[C@H]1CCCN(C(C)C)C1` [(S)-9, (S)-6-(4-Bromo-2-fluorophenoxy)-3-((1-isopropylpiperidin-3-yl)methyl)-2-methylpyrido[3,2-d]pyrimidin-4(3H)-one]: the “significant response (≥50% inhibition or stimulation)” value in the experiment with adrenergic α1ARs, on muscarinic M1Rs and on muscarinic M2Rs was “did not show significant responses; also recorded: did not show significant binding” in each case. In experiment [1], the IC50 is 2.19 nM. Further, the inhibition constant (Ki) at GhrR was 0.01 nM; at rat σ2 receptor, 87 ± 23 nM. Besides, the Emax in experiment [2] (COS-7, mean ± SEM, refers to ghrelin Emax as 100%, 0% = constitutive receptor activity) is roughly 60%. Also, the EC50 in experiment [2] (EC50, 2 h stimulation in absence of ghrelin, COS7-hGhrR) is 0.7 nM; in experiment [2] (pEC50, mean ± SEM, 2 h stimulation in absence of ghrelin) it was 0.676 nM.

A word on the IC50: it is the midpoint of a concentration-inhibition curve. Read a high IC50 as weaker potency in that assay. One may read the Ki as the equilibrium dissociation constant of an inhibitor or competing ligand from its target. In general, Emax refers to the maximal effect, on the per cent scale that the assay sets. What is called EC50 is the midpoint of the concentration-response curve. Low readings indicate higher potency in that assay, high ones lower potency in that assay.
